Key:
[1] = in the body; no source or species given; cited from earlier work
LoVo tumor cells = experiment: Anti-tumoral efficacy in the colorectal adenocarcinoma xenograft model LoVo; type: in vivo, NCr nu/nu mice
Experimental: Study Design: A total of 50 female NCr nu/nu mice (10 per group) at the age of 8-12 weeks were injected with 1×10^7 LoVo tumor cells in 50% Matrigel sc in flank. After seven days they were administered intraperitoneal injections according to the schedule in table 2. Animals were monitored individually. The endpoint of the experiment was a tumor weight of 1000 mm^3 or 75 days, whichever came first. Responders could be followed longer. When the endpoint was reached, the animals were euthanized. Body weight (g) and tumor volume (mm^3) was measured on days 1, 2, 3, 4, 5, 7, 11, 14, 18, 21, 25, 28, 32, 35, 39, 42, 46, 49, 53, 56, 60, 63, 67, 70 and 74.

For `CN1c2c(nc(N)[nH]c2=O)NCC1CNc1ccc(C(=O)N[C@@H](CCC(=O)O)C(=O)O)cc1` (stereo partly shown) [methyl-THF, 5-methyltetrahydrofolate], the half life [1] is given as “approximately 5 hours”.
For `Nc1nc2c(c(=O)[nH]1)N1CN(c3ccc(C(=O)N[C@@H](CCC(=O)O)C(=O)O)cc3)CC1CN2` (stereo partly shown) [methylene-THF, 5,10-methylene tetrahydrofolate], the half life [1] is given as “approximately 20 min”, the “Median tumor volume over time (FIG. 2), in words” value (LoVo tumor cells; LoVo xenograft, days 1-74) is given as “enhances the anti-tumor growth effect of cetuximab” and the “Time to endpoint, Kaplan-Meier plot (FIG. 3), in words” value (LoVo tumor cells; endpoint: tumor weight of 1000 mm^3 or 75 days) is given as “enhancing the beneficial effect of cetuximab”.
